Measured values reported in patent US20010047099A1, “4-aminopicolinates and their use as herbicides” (priority 2000, published 2001).

How the values were obtained:
[1] = tested on: pigweed (Amaranthus retroflexus); test: Preemergence herbicidal activity; assay type: in vivo; conditions: Amaranthus retroflexus, 504 h, Table 6 (headed Post-emergent; text: preemergence), after 3 weeks, read-out: % Control AMARE; for pest or weed control at 140 ppm: rate 140 ppm; for pest or weed control at 560 ppm: rate 560 ppm; for pest or weed control at 280 ppm: rate 280 ppm
Outline: (§1)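 Percent injury or lack of germination was judged by eye against untreated pots at 3 weeks, where 100 means complete kill. Before emergence, seeded 70:30 loam-sand soil received a surface spray of compound in water with 0.1% Tween 155 (acetone/DMSO carrier); greenhouse 15 h photoperiod, about 22-29° C.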

[2] = tested on: morningglory (Ipomoea hederacea); test: Preemergence herbicidal activity; assay type: in vivo; conditions: Ipomoea, 504 h, Table 6 (headed Post-emergent; text: preemergence), after 3 weeks, read-out: % Control IPOHE; for pest or weed control at 140 ppm: rate 140 ppm; for pest or weed control at 560 ppm: rate 560 ppm; for pest or weed control at 280 ppm: rate 280 ppm
Outline: as §1

[3] = tested on: velvetleaf (Abutilon theophrasti); test: Preemergence herbicidal activity; assay type: in vivo; conditions: Abutilon theophrasti, 504 h, Table 6 (headed Post-emergent; text: preemergence), after 3 weeks, read-out: % Control ABUTH; for pest or weed control at 140 ppm: rate 140 ppm; for pest or weed control at 560 ppm: rate 560 ppm; for pest or weed control at 280 ppm: rate 280 ppm
Outline: as §1

[4] = tested on: wheat (Triticum aestivum); test: Postemergence herbicidal activity, selectivity to wheat; assay type: in vivo; conditions: Table 5, crop (wheat)
Protocol: (§2) Seeds of the desired test plant species were planted in Grace-Sierra MetroMix® 306 planting mixture, which typically has a pH of 6.0 to 6.8 and an organic matter content of about 30 percent, in plastic pots with a surface area of 64 square centimeters. When required to ensure good germination and healthy plants, a fungicide treatment and/or other chemical or physical treatment was applied. The plants were grown for 7-21 days in a greenhouse with an approximate 15 hr photoperiod which was maintained at about 23-29° C. during the day and 22-28° C. during the night. Nutrients and water were added on a regular basis and supplemental lighting was provided with overhead metal halide 1000-Watt lamps as necessary. The plants were employed for testing when they reached the first or second true leaf stage.
(§3) A weighed amount, determined by the highest rate to be tested, of each test compound was placed in a 20 mL glass vial and was dissolved in 4 mL of a 97:3 v/v (volume/volume) mixture of acetone and dimethyl sulfoxide (DMSO) to obtain concentrated stock solutions. […] The concentrated stock solutions obtained were diluted with an aqueous mixture containing acetone, water, isopropyl alcohol, DMSO, Atplus 411F crop oil concentrate, and Triton X-155 surfactant in a 48.5:39:10:1.5:1.0:0.02 v/v ratio to obtain spray solutions of known concentration. The solutions containing the highest concentration to be tested were prepared by diluting 2 mL aliquots of the stock solution with 13 mL of the mixture and lower concentrations were prepared by serial dilution of the stock solution. Approximately 1.5 mL aliquots of each solution of known concentration were sprayed evenly onto each of the test plant pots using a DeVilbiss atomizer driven by compressed air pressure of 2 to 4 psi (140 to 280 kilopascals) to obtain thorough coverage of each plant. Control plants were sprayed in the same manner with the aqueous mixture. In this test an application rate of 1 ppm results in the application of approximately 1 g/Ha.
(§4) The treated plants and control plants were placed in a greenhouse as described above and watered by sub-irrigation to prevent wash-off of the test compounds. After 2 weeks the condition of the test plants as compared with that of the untreated plants was determined visually and scored on a scale of 0 to 100 percent where 0 corresponds to no injury and 100 corresponds to complete kill.

[5] = tested on: wild buckwheat (Polygonum convolvulus); test: Postemergence herbicidal activity; assay type: in vivo; conditions: for pest or weed control at 250 ppm / pest or weed control at 125 ppm: Fallopia convolvulus, post-emergence, 336 h, Table 1, visual, after 2 weeks, read-out: Post-emergent % Control POLCO; for Post-emergent Evaluation - % control POLCO: Table 5; for pest or weed control at 125 ppm: rate 125 ppm
Outline: (§5)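 Foliar spray at 1st–2nd true leaf; 1 ppm ≈ 1 g/Ha. Carrier: acetone/water/IPA/DMSO plus crop oil concentrate and Triton X-155. Greenhouse, sub-irrigated. Visual rating vs untreated at 2 wk, 0 = no injury, 100 = complete kill.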

[6] = tested on: chickweed (Stellaria media); test: Postemergence herbicidal activity; assay type: in vivo; conditions: for pest or weed control at 250 ppm / pest or weed control at 125 ppm: Stellaria media, post-emergence, 336 h, Table 1, visual, after 2 weeks, read-out: Post-emergent % Control STEME; for Post-emergent Evaluation - % control STEME: Table 5; for pest or weed control at 125 ppm: rate 125 ppm
Outline: as §5

[7] = tested on: lambsquarters (Chenopodium album); test: Postemergence herbicidal activity; assay type: in vivo; conditions: Table 5
Outline: as §5

[8] = tested on: cocklebur (Xanthium strumarium); test: Postemergence herbicidal activity; assay type: in vivo; conditions: for pest or weed control at 250 ppm / pest or weed control at 125 ppm: Xanthium strumarium, post-emergence, 336 h, Table 1, visual, after 2 weeks, read-out: Post-emergent % Control XANST; for Post-emergent Evaluation - % control XANST: Table 4
Outline: as §5

rice (Oryza sativa) = test: Postemergence herbicidal activity, selectivity to rice; assay type: in vivo; conditions: Table 3; crop (rice); rate 250 ppm
Protocol: as §2
as §3, with “Approximately 1.5 mL aliquots of each solution of known concentration were sprayed evenly onto each of the test plant pots using a DeVilbiss atomizer driven by compressed air pressure of 2 to 4 psi (140 to 280 kilopascals) to obtain thorough coverage of each plant. Control plants were sprayed in the same manner with the aqueous mixture. In this test an application rate of 1 ppm results in the application of approximately 1 g/Ha.” left out
as §4

[9] = tested on: barnyardgrass (Echinochloa crus-galli); test: Postemergence herbicidal activity; assay type: in vivo; conditions: Table 3; weeds in rice; rate 250 ppm
Outline: as §5

[10] = tested on: yellow nutsedge (Cyperus esculentus); test: Postemergence herbicidal activity; assay type: in vivo; conditions: Table 3; weeds in rice; rate 250 ppm
Outline: as §5

[11] = tested on: White Clover (Trifolium repens); test: Range & Pasture Crop Testing (postemergence track sprayer); assay type: in vivo; conditions: Table 10
Protocol: (§6) By applying the well-accepted probit analysis as described by J. Berkson in Journal of the […], 48, 565 (1953) and by D. Finney in “Probit Analysis” Cambridge University Press (1952), the above data can be used to calculate GR50 and GR80 values, which are defined as growth reduction factors that correspond to the effective dose of herbicide required to kill or control 50 percent or 80 percent, respectively, of a target plant.
(§7) Rates are calculated based upon 5 doses being applied. The high rate (X), followed by serial dilutions of 1/2×, 1/4×, 1/8× and 1/16×. Compound requirements are based upon the 187 L/ha carrier volume, specifications of the delivery system (Mandel track sprayer) and generating 24 mL of technical spray material to allow for the dilutions and overage in the sprayer. [formula]
(§8) All technical materials were formulated in 97:3 (acetone:DMSO) with 0.25% X-77. The total volume of solvent is maintained at less than 7%. An overhead Mandel track sprayer calibrated to deliver 187 L/ha was used for all treatment applications (postemergence). Picloram was included as a comparison treatment.
(§9) Solutions were applied with a mechanized track-sprayer at the following settings:
(§10) Spray height: 17 inches above top of plants
(§11) This provides an application volume of 187 L/ha.
(§12) Percent weed control (burn down) was evaluated 3 weeks after treatment. Visual control on a 0-100 linear scale was used, with 0 representing no control and 100 representing total control. Burn down ratings were taken for annual and perennial weed species.

[12] = tested on: Canada thistle (Cirsium arvense); test: as above; assay type: in vivo; conditions: for GR80 CIRAR: Table 10, clover pasture, postemergence
Protocol: as §6, §7, §8, §9, §10, §11, §12

[13] = tested on: field bindweed (Convolvulus arvensis); test: as above; assay type: in vivo; conditions: Table 10; clover pasture; postemergence
Protocol: as §6, §7, §8, §9, §10, §11, §12

[14] = tested on: crested wheatgrass (Agropyron cristatum) (grass crop); test: as above; assay type: in vivo; conditions: Table 9, rate 70 g/Ha, 3 weeks after treatment
Protocol: as §7, §8, §9, §10, §11, §12

[15] = tested on: broadleaf dock (Rumex obtusifolia); test: as above; assay type: in vivo; conditions: Table 9; rate 70 g/Ha; 3 weeks after treatment
Protocol: as §7, §8, §9, §10, §11, §12

corn (Zea mays) = test: Postemergence herbicidal activity, selectivity to corn; assay type: in vivo; conditions: Table 4, crop (corn)
Protocol: as §2
as §3, with “Approximately 1.5 mL aliquots of each solution of known concentration were sprayed evenly onto each of the test plant pots using a DeVilbiss atomizer driven by compressed air pressure of 2 to 4 psi (140 to 280 kilopascals) to obtain thorough coverage of each plant. Control plants were sprayed in the same manner with the aqueous mixture. In this test an application rate of 1 ppm results in the application of approximately 1 g/Ha.” left out
as §4

[16] = tested on: pigweed (Amaranthus retroflexus); test: Postemergence herbicidal activity; assay type: in vivo; conditions: Table 4
Outline: as §5

[17] = tested on: velvetleaf (Abutillon theophrasti); test: Postemergence herbicidal activity; assay type: in vivo; conditions: Table 4
Outline: as §5

Row | SMILES | pest or weed control at 250 ppm ([5]; rate 250 ppm) | pest or weed control at 250 ppm ([6]; rate 250 ppm) | pest or weed control at 250 ppm ([8]; rate 250 ppm) | melting point | pest or weed control at 560 ppm [1] | pest or weed control at 560 ppm [2] | pest or weed control at 560 ppm [3] | pest or weed control at 125 ppm [5] | pest or weed control at 125 ppm [6] | pest or weed control at 125 ppm ([8]; rate 125 ppm) | pest or weed control at 280 ppm [1] | pest or weed control at 280 ppm [2] | pest or weed control at 280 ppm [3] | further results
1 | Nc1cc(C(F)(F)F)nc(C(=O)O)c1Cl [Compound 46, 4-Amino-3-chloro-6-trifluoromethylpyridine-2-carboxylic acid] | 100% | 60% | 90% | 131 to 133 °C | – | – | – | – | – | – | – | – | – | pest or weed control at 140 ppm [1]: 95%; pest or weed control at 140 ppm [2]: 100%; pest or weed control at 140 ppm [3]: 95%; Post-emergent Evaluation - % control TRZAS ([4]; rate 31 ppm): 10%; Post-emergent Evaluation - % control POLCO ([5]; rate 31 ppm): 100%; Post-emergent Evaluation - % control STEME ([6]; rate 31 ppm): 50%; Post-emergent Evaluation - % control CHEAL ([7]; rate 31 ppm): 100%
2 | CCNc1cc(Cl)nc(C(=O)O)c1Cl [Compound 27, 4-N-ethylamino-3,6-dichloropyridine-2-carboxylic acid] | – | – | – | 136 to 137 °C | 100% | 100% | 100% | 90% | 100% | 85% | – | – | – | post emergent evaluation - % control ORYZA (rice (Oryza sativa)): 40%; post emergent evaluation - % control ECHCG [9]: 70%; post emergent evaluation - % control CYPES [10]: 50%
3 | COc1c(N)cc(Br)nc1C(=O)O [Compound 41, 4-Amino-6-bromo-3-methoxypyridine-2-carboxylic acid] | – | – | – | – | – | – | – | 100% | 90% | 80% | 40% | 85% | 90% | Post-emergent Evaluation - % control TRZAS ([4]; rate 250 ppm): 10%; Post-emergent Evaluation - % control POLCO ([5]; rate 250 ppm): 100%; Post-emergent Evaluation - % control STEME ([6]; rate 250 ppm): 20%; Post-emergent Evaluation - % control CHEAL ([7]; rate 250 ppm): 90%
4 | CCCOC(=O)c1nc(Cl)cc(N)c1Cl [Compound 5, n-propyl 4-amino-3,6-dichloropyridine-2-carboxylate] | – | – | – | 94 to 95 °C | – | – | – | 100% | 100% | 100% | 100% | 100% | 100% | GR20 TRFRE [11]: <17.5 g/ha; GR80 CIRAR [12]: <17.5 g/ha; GR80 CONAR [13]: 140.1 g/ha
5 | CNc1cc(Cl)nc(C(=O)O)c1Cl [Compound 26, 4-N-Methylamino-3,6-dichloropyridine-2-carboxylic acid] | – | – | – | 170 to 172 °C | 100% | 100% | 100% | 95% | 90% | 90% | – | – | – | Post-emergent Evaluation - % control CIRAR ([12]; Table 9, rate 70 g/Ha, 3 weeks after treatment): 90%; Post-emergent Evaluation - % control AGRCR [14]: 10%; Post-emergent Evaluation - % control RUMOB [15]: 100%
6 | CN(C)c1cc(Cl)nc(C(=O)O)c1Cl [Compound 33, 4-N,N-dimethylamino-3,6-dichloropyridine-2-carboxylic acid] | 100% | 100% | 100% | 110 °C | 100% | 100% | 98% | – | – | – | – | – | – | Post-emergent Evaluation - % control ZEAMX (corn (Zea mays); rate 125 ppm): 20%; Post-emergent Evaluation - % control AMARE ([16]; rate 125 ppm): 50%; Post-emergent Evaluation - % control ABUTH ([17]; rate 125 ppm): 80%; Post-emergent Evaluation - % control XANST ([8]; rate 125 ppm): 100%
7 | CCCCCCOC(=O)c1nc(Cl)cc(N)c1Cl [Compound 9, n-hexyl 4-amino-3,6-dichloropyridine-2-carboxylate] | 100% | 100% | 100% | 65 to 66 °C | – | – | – | – | – | – | 98% | 100% | 100% | GR20 TRFRE [11]: 20.7 g/ha; GR80 CIRAR [12]: 20.7 g/ha; GR80 CONAR [13]: 66 g/ha
8 | Nc1c(F)c(C(=O)O)nc(Cl)c1Cl [Compound 43, 4-Amino-5,6-dichloro-3-fluoropyridine-2-carboxylic acid] | – | – | – | 208 °C (dec.) | – | – | – | 60% | 85% | 90% | – | – | – | pest or weed control at 140 ppm [1]: 30%; pest or weed control at 140 ppm [2]: 70%; pest or weed control at 140 ppm [3]: 80%; Post-emergent Evaluation - % control ZEAMX (corn (Zea mays); rate 250 ppm): 0%; Post-emergent Evaluation - % control AMARE ([16]; rate 250 ppm): 90%; Post-emergent Evaluation - % control ABUTH ([17]; rate 250 ppm): 70%; Post-emergent Evaluation - % control XANST ([8]; rate 250 ppm): 85%
